Reference: patent US20230381174A1, “THIONOESTER-DERIVATIVE OF RABEXIMOD FOR THE TREATMENT OF INFLAMMATORY AND AUTOIMMUNE DISORDERS” (Vironova Thionationl AB, priority 2020, published 2023)

Columns and labels:
IL-1β = assay: LPS assay: IL-1β release in whole blood; assay type: cell-based, human; settings: LPS 500 ng/ml
Experimental: (§1) Inflammation can be induced in vitro by stimulation with LPS, manifested by the release of various cytokines. […] TNF-α, IL1β and IL-6 are important cytokines in the pathogenesis of RA and MS and therefore selected in this assay.
(§2) Whole blood was collected from an adult volunteer in Heparin tubes. LPS stimulation started within 60 minutes of blood draw. The blood was diluted with RPMI and then stimulated with LPS and incubated with different concentrations of either Rabeximod or the inventive compound. The samples were centrifuged and plasma harvested and analysed on Luminex to measure cytokines.
(§3) The release of cytokines and chemokines was investigated after stimulation of whole blood with LPS, and treatment with either the inventive compound or Rabeximod.

TNF-α = assay: LPS assay: TNF-α release in whole blood; assay type: cell-based, human; settings: LPS 500 ng/ml
Experimental: as §1, §2, §3

[1] = tested on: Reactive Oxygen Species (ROS) production in PBMCs; assay: Isoluminol assay: ROS production in PMA-activated PBMCs; assay type: cell-based, human; settings: PBMCs activated with PMA at 30 ng/ml; luminescence measured over 25 minutes; FIGS. 1 and 2
Text: Oxygen metabolism has an important role in the pathogenesis of both rheumatoid arthritis and multiple sclerosis. Reactive oxygen species (ROS) produced in the course of cellular oxidative phosphorylation, and by activated phagocytic cells during oxidative bursts, exceed the physiological buffering capacity and result in oxidative stress. The excessive production of ROS can damage protein, lipids, nucleic acids, and matrix components. ROS also serve as important intracellular signaling molecules that amplify the synovial inflammatory-proliferative response.
Frozen PBMCs, isolated from human blood (Blodcentralen, Lund, Sweden) through gradient centrifugation using Ficoll, were thawed quickly, activated with PMA at 30 ng/ml and treated with Rabeximod or the inventive compound, at different concentrations ranging from 12.5 μg/ml with 1:2 dose titrations over 8 steps. Controls included were DMSO control, PMA at 30 ng/ml and 0 μg/ml of test items. […] Cell concentration was determined using a Scepter cell counter (Millipore Merck, MA, USA) and diluted at 2×10^6 cells/ml when added to the assay plate. The luminescence signal was measured over 25 minutes.
ROS production was investigated after treatment with the inventive compound or Rabeximod at different concentrations ranging from 12.5 μg/ml with 1:2 dose titrations over 8 steps. Luminescence signal was measured over 25 minutes.

[2] = tested on: collagen antibody induced arthritis (CAIA); assay: Collagen antibody induced arthritis (CAIA) mouse model; assay type: in vivo, mice (DBA/1); settings: for histological (IHC) score of front paws compared with vehicle: 20 mg/kg, at study termination, score 0-3, FIG. 8; for disease severity (macroscopic arthritis score) compared with vehicle: not significant; for adverse effects from treatments: CAIA mice, any of the doses tested (5, 10, 20 mg/kg s.c.)
Text: The collagen antibody induced arthritis (CAIA) arthritis in mice is a model independent of both B and T cells. CAIA is an acute model of arthritis and the disease is induced with antibodies to collagen type II. The antibodies bind to cartilage, leading to activation of the immune system followed by recruiting of macrophages and granulocytes to the joints. After an LPS boost at day five, disease progression starts and reaches a maximum around day 15. CAIA model: Mice (DBA/1, 8-10 weeks old) were weighed at day −1 for determination of mean weight of animals in the experiment and for composition of groups. Groups were mixed within cages to avoid cage effects. The mice were injected i.v. with a cocktail of four (4) monoclonal antibodies against collagen type II (2 mg/mouse) on day 0. Day 5 the mice were injected with LPS (50 μg/mouse) i.p., in order to boost the disease. Dose preparation of test items were performed daily in corn oil. Disease was evaluated daily from day 3 in a blinded fashion using a macroscopic scoring system of the four limbs ranging from 0 to 15 (1 point for each swollen or red toe, 1 point for a swollen or red mid foot digit or knuckle, 5 points for a swollen ankle) resulting in a maximum total score of 60 for each mouse. Due to ethical restrictions, animals with a score exceeding 45 were removed from the experiment. Immunohistochemistry: Front paws from animals, in the vehicle, Rabeximod (20 mg/kg) and the inventive compound (20 mg/kg) groups, were collected at termination of the animals. The paws were immediately transferred to 4% formaldehyde containing vials for immersion fixation. The tissues were fired for 24 hours and then transferred to 70% EtOH and stored at +4° C. until staining. Paws were decalcified, paraffin embedded, sectioned and stained for hematoxylin and eosin (H&E). Resulting slides were photographed at high resolution. Images were used for morphology analysis to study cartilage destruction and infiltration of inflammatory cells in the joints. An overall assessment for the whole paw were scored (0-3), including evaluation of synovial inflammation, synovial pannus formation and bone destruction. Graphs and statistical analysis were performed using Prism 8 for Mac OS X (GraphPad Software, San Diego, CA, USA). Results are presented as mean values±SEM, if not otherwise stated. Statistics were calculated using a two-tailed non-parametric Mann-Whitney test where p<0.05 was considered significant. * represents a p-value<0.05, ** represents a p-value<0.01 and *** represents a p-value<0.001.

IL-6 = assay: LPS assay: IL-6 release in whole blood; assay type: cell-based, human; settings: LPS 500 ng/ml
Experimental: as §1, §2, §3

[3] = tested on: pristane-induced arthritis (PIA); assay: Pristane-induced arthritis (PIA) rat model; assay type: in vivo; settings: 20 mg/kg s.c. days 5, 7, 9, 11, 13, 15
Text: Pristane-induced arthritis (PIA) in rats is an animal model that mimics the criteria used for diagnosis of rheumatoid arthritis (RA). PIA is one of the most reproducible models of RA with high incidence and little variation in severity. Disease is characterized by a pronounced T cell dependent inflammatory response resulting in inflammation of peripheral joints. Disease is induced with a single injection of pristane and has a highly reproducible onset of arthritis between day 8-12. The most severe phase of arthritis is often between day 15-25 after induction and experiment can be terminated after 25-30 days. For disease induction rats were anaesthetized with IsoFlo vet (3%) and oxygen. The root of the tail was cleaned with EtOH and pristane was injected subcutaneously (s.c.) (volume 200 μl) approximately 0.5 cm from the root of the tail. A slight pressure was put on the injection site for 10 seconds after injections to prevent leakage of oil. Rats were removed from anaesthetics and the breathing was monitored until recovery was ensured. […] Disease was evaluated 3 times per week in a blinded fashion from day 10 using a macroscopic scoring system of the four limbs ranging from 0 to (1 point for each swollen or red toe, 1 point for a swollen or red mid foot digit or knuckle, […]) resulting in a maximum total score of 60 for each rat. […]

[4] = lower concentrations (from 312.5 nM, below 5000 nM)

Cc1cc2nc3c4cc(Cl)ccc4n(CC(=S)NCCN(C)C)c3nc2cc1C [inventive compound, 2-(9-chloro-2,3-dimethyl-6H-indolo[2,3-b]quinoxalin-6-yl)-N-(2-(dimethylamino)ethyl)ethanethioamide]
level of IL-1β compared to Rabeximod (IL-1β; compound at 5000 nM, FIG. 5): significantly lower | level of IL-1β compared to Rabeximod (IL-1β; [4]): trend of reduced cytokines levels | level of TNF-α compared to Rabeximod (TNF-α; compound at 5000 nM, FIG. 3): significantly lower | level of TNF-α compared to Rabeximod (TNF-α; [4]): trend of reduced cytokines levels | concentration that inhibits ROS production completely [1]: 6.25 µg/mL | melting point: 184 to 188 °C | histological (IHC) score of front paws compared with vehicle [2]: significantly lower | dose-response of arthritis severity compared to Rabeximod ([2]; 5, 10 and 20 mg/kg s.c.): clear dose-response | disease severity (macroscopic arthritis score) compared with vehicle ([2]; 10 and 20 mg/kg s.c. every other day from day 5, six administrations, FIG. 6): small decrease in disease severity | adverse effects from treatments [2]: No adverse effects | level of IL-6 compared to Rabeximod (IL-6; compound at 5000 nM, FIG. 4): significantly lower | level of IL-6 compared to Rabeximod (IL-6; [4]): trend of reduced cytokines levels | RA score (macroscopic arthritis score) ([3]; all study time points measured, FIG. 9): slightly lower | efficacy during the most severe phase of arthritis ([3]; compared with Rabeximod): better efficacy than Rabeximod

Cc1cc2nc3c4cc(Cl)ccc4n(CC(=O)NCCN(C)C)c3nc2cc1C [Rabeximod, 2-(9-chloro-2,3-dimethyl-6H-indolo[2,3-b]quinoxalin-6-yl)-N-(2-(dimethylamino)ethyl)acetamide]
concentration that inhibits ROS production completely [1]: 12.5 µg/mL | histological (IHC) score of front paws compared with vehicle [2]: No significant difference | adverse effects from treatments [2]: No adverse effects | disease severity (macroscopic arthritis score) compared with vehicle ([2]; all three doses (5, 10 and 20 mg/kg) s.c. every other day from day 5, six administrations, FIG. 7): small decrease in disease severity
